Assay results: article PMC3681555, “PPARγ as a sensor of lipase activity and a target for the lipase inhibitor orlistat” (Lipids in Health and Disease, 2013)

Assays:
PPARγ [1] = target: T1, PPARγ (Homo sapiens, UniProt P37231); assay: competitive fluorescence polarization (PolarScreen PPARγ green kit); LC-MS shows no covalent adduct; format: binding
T1 construct: gene PPARG
T1 sequence (P37231 235-505 limits assumed): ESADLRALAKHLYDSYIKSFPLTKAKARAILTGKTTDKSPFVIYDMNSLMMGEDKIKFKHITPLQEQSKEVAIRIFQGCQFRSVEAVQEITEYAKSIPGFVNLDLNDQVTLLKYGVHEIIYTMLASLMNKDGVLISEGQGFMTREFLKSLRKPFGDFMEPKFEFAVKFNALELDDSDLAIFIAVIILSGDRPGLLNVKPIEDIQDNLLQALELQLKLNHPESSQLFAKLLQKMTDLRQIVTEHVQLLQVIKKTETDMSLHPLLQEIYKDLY

PPARγ [2] = target: T1, PPARγ; assay: intact-protein LC-ESI-MS, covalent control (data not shown); format: binding

IC50 (PPARγ [1]) | SMILES | intact-protein LC-ESI-MS, covalent control (data not shown) (PPARγ [2])
2840 nM | CCCCCCCCCCC[C@@H](C[C@@H]1OC(=O)[C@H]1CCCCCC)OC(=O)[C@H](CC(C)C)NC=O [Orlistat] | 
 | O=C(Nc1ccccc1)c1cc([N+](=O)[O-])ccc1Cl [GW9662] | Dithio-bis (2-nitrobenzoic acid) and GW9662, were also confirmed bind to PPARγ irreversibly (data not shown)
